# Experimental data taken from patent publication US11357750B2, “Cysteamine prodrugs” (Children's Hospital Medical Center, priority 2017, dated 2022).
# Structures can show the parent of a compound that is named as a salt.
# Legend:
# [1] = system: intracellular cystine (circulating white blood cells); conditions: taken regularly; measured in circulating white blood cells; cited from earlier work
# [2] = cited from earlier work
# [3] = Pharmacokinetic (PK) study of cysteamine in plasma after oral dosing in rats, blood sampling from portal vein and heart (HPV protocol); assay type: in vivo, rat
# Procedure: Absorption and hepatic extraction information after oral administration and blood sampling from portal vein and heart (HPV protocol) were evaluated.
# Blood samples were collected at intervals up to 24 h after dose administration (n=3 animals per each time point).
# Sample Collection and Handling: After PO administration, blood samples were collected under deep Isofluorane anesthesia from portal vein and heart of each rat (3 rats per each time point). Blood was collected into potassium EDTA tubes at each of the following time points post-dose (actual times will be recorded): 0.25, 0.5, 1, 2, 4, 6, 8, 12 and 24 hours after dosing. All blood samples were thoroughly, but gently mixed following collection, placed on ice and centrifuged as soon as possible (2000 g for 5 min at 0° C.) to prepare plasma. Duplicate 50 μL aliquots of plasma samples were transferred in micronic tubes.
# Plasma Sample Preparation: • 1. Calibration standards (CS) and quality control (QC) plasma samples were prepared by adding 5 μL WS to 45 μL of fresh plasma into micronic tubes using Tecan. • 2. Pseudo QC were prepared by adding 5 μL WSQC to 45 μL of water into micronic tubes using Tecan. • 3. CS, QC, pseudo QC and blank were diluted with 200 μL of KCl solution (1.15%). • 4. Plasma collection was performed by laboratory automation system (LAS). 50 μL whole plasma was transferred into micronic tubes containing 200 μL of KCl solution (1.15%). • 5. All samples were added […] with 20 μL of glutathione ethyl ester as internal standard (0.01 mg/mL in water) and 100 μL of Ellman's reagent (10 mM in water). • 6. […]
# Plasma sample analysis: Samples were assayed for cysteamine using a method based on protein precipitation followed by HPLC/MS-MS analysis. Study samples were analyzed in discrete batches together with calibration standards (CS), used to construct calibration curves and blank samples (including also double blanks), used to assess specificity. […] The presence of prodrug and its products were monitored but not quantified in both portal and systemic plasma. […]
smiles,measurement,setting,value
"NCCS [cysteamine, 2-aminoethane-1-thiol]",Depletion of intracellular cystine,[1],up to 90%
same,Duration of activity (short half-life),[2]; in vivo,5 to 6 h
same,Estimated bioavailability,"[2]; oral administration, extensive first pass metabolism",10-30%
"Cl.NCCS.OCC(O)CO [Glycerol Cysteamine Hydrochloride, glycerol cysteamine hydrochloride]",Release of cysteamine hydrochloride from the glycerol prodrug moiety (conclusion),"[3]; rats PO, gastrointestinal (GI) tract",fully separated from the glycerol prodrug moiety in the gastrointestinal (GI) tract
same,Cysteamine levels in portal plasma after prodrug administration,"[3]; rats PO, versus cysteamine hydrochloride administration",comparable to those observed after cysteamine hydrochloride administration
"NCCS [Cysteamine Hydrochloride, cysteamine hydrochloride]",Fa % (fraction absorbed),"[3]; male, CD, rat, in vivo, po",16.1%
